In patent US8835659B2, “Polysubstituted benzofurans and medicinal applications thereof” (Ikerchem, S.L., priority 2010, dated 2014) one finds Emax, EC1.5 (concentration raising enzyme activity by 50%) and IC50 data, which are given here for twelve compounds.

The target of the experiment is human SIRT1 (Homo sapiens (Human), UniProt Q96EB6). The experiment can be described thus: SIRT1 in vitro deacetylation assay (Fluor-de-Lys, acetylated AMC-labeled p53 peptide). The format is biochemical. As to conditions: 50 μM substrate peptide, 500 μM NAD+, 30° C., 2 h; for Emax: SIRT1 activation, read-out: Max (%), percentage of maximum activation achieved; for EC1.5 (concentration raising enzyme activity by 50%): concentration required to increase the enzyme activity by 50%, read-out: EC1.5 (SIRT1 activators); for IC50: concentration reducing enzyme activity by 50%, read-out: IC50 (SIRT1 inhibitors). On the procedure:
The inhibitory activity is measured as the concentration of compound required to reduce the enzyme activity by 50% (IC50).
Activation in this assay is measured both as the concentration of compound required to increase the enzyme activity by 50% (EC1.5) as well as by the percentage of maximum activation achieved (Max %) (see, FIG. 1).
The reactions were carried out in a 96-well microplate for fluorometry in a 50 μl reaction volume. After the deacetylation reaction, Fluor-de-Lys-Developer II (BioMol. Cat. #KI-176) was added to each well to digest the deacetylated substrate, thus producing the fluorescent signal. The reaction was allowed to develop for 45 minutes at 30° C. with 5% CO2; then the fluorescent signal was measured with an excitation wavelength at 360 nm and an emission wavelength at 460 nm in a microplate-reading fluorometer (GeminiXS; Molecular Devices, Sunnyvale, Calif.). […] All experiments were performed in triplicate.

Chain of human SIRT1 (Q96EB6 whole entry): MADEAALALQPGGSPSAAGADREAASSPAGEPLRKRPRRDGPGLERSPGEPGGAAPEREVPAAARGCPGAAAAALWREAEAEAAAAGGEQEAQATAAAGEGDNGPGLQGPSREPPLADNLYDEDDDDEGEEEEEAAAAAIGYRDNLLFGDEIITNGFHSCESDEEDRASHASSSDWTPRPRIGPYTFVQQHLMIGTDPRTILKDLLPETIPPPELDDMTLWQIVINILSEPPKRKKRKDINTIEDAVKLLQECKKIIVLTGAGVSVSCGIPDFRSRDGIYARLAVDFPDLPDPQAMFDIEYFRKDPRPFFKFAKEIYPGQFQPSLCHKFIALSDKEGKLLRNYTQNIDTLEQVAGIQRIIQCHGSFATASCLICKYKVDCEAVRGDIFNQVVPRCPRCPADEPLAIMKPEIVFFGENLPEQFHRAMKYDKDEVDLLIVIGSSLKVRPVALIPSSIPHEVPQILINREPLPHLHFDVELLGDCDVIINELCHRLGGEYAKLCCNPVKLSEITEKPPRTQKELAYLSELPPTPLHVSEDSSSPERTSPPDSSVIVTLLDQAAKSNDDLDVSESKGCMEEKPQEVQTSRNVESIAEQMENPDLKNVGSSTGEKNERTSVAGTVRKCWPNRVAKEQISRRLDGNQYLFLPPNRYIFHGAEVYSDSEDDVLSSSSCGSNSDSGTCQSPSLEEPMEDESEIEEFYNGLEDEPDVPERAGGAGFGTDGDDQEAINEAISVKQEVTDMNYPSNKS

For `Oc1cc(O)cc(-c2cc3ccc(O)cc3o2)c1` [5-(6-hydroxy-1-benzofuran-2-yl)benzene-1,3-diol, reference compound], the Emax worked out at 451% and the EC1.5 (concentration raising enzyme activity by 50%) was determined as 11.5 nM.
With `Oc1cc(O)cc(-c2cc3c(O)cc(O)cc3o2)c1` [Example 8, 2-(3,5-dihydroxyphenyl)-1-benzofuran-4,6-diol], the Emax was found to be 407% and the EC1.5 (concentration raising enzyme activity by 50%) was 1.32 nM.
`Oc1ccc(-c2cc3c(O)cc(O)cc3o2)cc1` [Example 9, 2-(4-hydroxyphenyl)-1-benzofuran-4,6-diol]: the Emax is 444% and the EC1.5 (concentration raising enzyme activity by 50%) was 3.55 nM.
Taken in the same sequence, the figures for `Oc1cc(O)c2cc(-c3ccc(F)cc3)oc2c1` [Example 10, 2-(4-fluorophenyl)-1-benzofuran-4,6-diol] were 279% and 13.5 nM.
On to `Oc1cc(O)c2cc(-c3cc(O)c(O)c(O)c3)oc2c1` [Example 11, 5-(4,6-dihydroxy-1-benzofuran-2-yl)benzene-1,2,3-triol], for which the IC50 (as a rule, the concentration at which inhibition is half-maximal) came to 1.84 µM.
With `COc1ccc(-c2cc3c(O)cc(O)cc3o2)c(OC)n1` [Example 12, 2-(2,6-dimethoxypyridin-3-yl)benzofuran-4,6-diol], the Emax was found to be 130%.
Turning to `Oc1cc(O)c2cc(-c3cc(F)cc(F)c3)oc2c1` [Example 13, 2-(3,5-difluorophenyl)benzofuran-4,6-diol], the IC50 amounted to 36.7 µM.
Still for that read-out and setting: the same measure for `Oc1ccc(-c2coc3cc(O)cc(O)c23)cc1` [Example 15, 3-(4-hydroxyphenyl)-1-benzofuran-4,6-diol]: 22.8 µM.
Turning to `Oc1cc(O)c2c(-c3cc(F)cc(F)c3)coc2c1` [Example 16, 3-(3,5-difluorophenyl)-1-benzofuran-4,6-diol], the IC50 was 274 µM.
Still for that read-out and setting: the same measure for `Oc1cc(O)c2c(-c3ccc(F)cc3)coc2c1` [Example 19, 3-(4-fluorophenyl)benzofuran-4,6-diol]: 192 µM.
On the same count and under the same terms, the same measure for `Oc1cc(O)c2c(-c3cc(F)cc(F)c3)c(Br)oc2c1` [Example 20, 2-bromo-3-(3,5-difluorophenyl)benzofuran-4,6-diol]: 76.3 µM.
For `Oc1ccc(C=Cc2cc(O)cc(O)c2)cc1` [Resveratrol, resveratrol, reference compound], the Emax turned out to be 475%.
